Source: publication PMC6273235, “Phenolic Constituents of Medicinal Plants with Activity against Trypanosoma brucei” (Molecules, 2016)
Read-outs that look alike come from different tables or passages of the source.

Experiments:
[1] = Cytotoxicity assay (resazurin, 3 days), HEK293T; format: cell-based, human; details: human
Description: (§1) HEK293T and HepG2 cells were cultured at 37 °C with 5% CO2 in Dulbecco’s modified eagle medium containing 10% FBS. Both cell lines were plated individually in 384 well plates (4000 cells per well) and the natural compounds (two fold 10 points serial dilution starting from 5 ppm) were added for 3 days of incubation.

[2] = tested on: HEK293T cells; test: Cytotoxicity assay (resazurin, 3 days), HEK293T; format: cell-based, human; details: for s.i (selectivity index) HEK239T: CC50 (HEK293T)/IC50 (T. brucei)
Description: as §1

[3] = Cytotoxicity assay (resazurin, 3 days), HepG2; format: cell-based, human; details: human
Description: as §1

[4] = tested on: HepG2 cells; test: Cytotoxicity assay (resazurin, 3 days), HepG2; format: cell-based, human; details: for s.i (selectivity index) HepG2: CC50 (HepG2)/IC50 (T. brucei)
Description: as §1

[5] = tested on: Trypanosoma; parameters: method as in PMID 16569852, PMID 20004045; details: cited from earlier work
[6] = tested on: T. b. brucei strain 427 (bloodstream forms); test: Anti-trypanosomal activity on T. brucei (resazurin growth inhibition, 3 days); format: cell-based, Trypanosoma brucei
Source text: To identify inhibitors of T. brucei growth, we conducted a screening of a proprietary library consisting of 440 purified natural products isolated from medicinal plants at the CNU laboratories. […] Nevertheless, since, according to the 5th rule, natural products may also represent exceptions from the other rules, all compounds were submitted to antiparasitic screening performed at a single concentration of 5 ppm (µg/mL) of each purified natural product.
T. b. brucei strain 427 (bloodstream forms) were cultivated at 37 °C with 5% CO2 atmosphere in HMI-9 medium supplemented with 10% FBS. […] After the incubation, the parasites were exposed to 120 µM of resazurin sodium salt for 5 h. Then, the parasites were fixed with 4% PFA and the assay plates were read by Victor 3 (PerkinElmer, Waltham, MA, USA) at 530 nmEx/590 nmEm. Pentamidine was used as a reference drug and DMSO 0.5% was used as a drug-negative control.

[7] = Trypanosoma brucei, 72 h, T. b. brucei strain 427 bloodstream forms, 3 days, mean ± SD, read-out: T. brucei IC50
[8] = Trypanosoma brucei, -log IC50 [M], experimental, read-out: pIC50 Tbr(exp) (converted)
[9] = T. b. brucei strain 427 bloodstream forms, 3 days, mean ± SD, read-out: T. brucei IC50
[10] = HEK293T cells, 3 days, > = highest concentration tested (5 ppm), read-out: Cytotoxicity CC50 Values HEK239T

O=C(/C=C/c1ccc(O)cc1)CC(=O)/C=C/c1ccc(O)cc1 [Compound 1, bisdemethoxycurcumin]
CC50 at 3 days [1]: > 32.5 µM
s.i (selectivity index) HEK239T [2]: >3.30
CC50 at 3 days [3]: > 32.5 µM
s.i (selectivity index) HepG2 [4]: >3.30
anti-trypanosomal activity previously reported [5]: anti-trypanosomal activity
IC50 [6, 7]: 9.84e-06 ± 8.4e-07 M
IC50 [6, 8]: 9.84e-06 M

CC(C)=CCc1cc(C(=O)/C=C/c2ccc(O)c(O)c2)c(O)cc1O [Compound 4, broussochalcone A]
CC50 at 3 days [1]: > 28.8 µM
s.i (selectivity index) HEK239T [2]: >13.28
CC50 at 3 days [3]: > 29.2 µM
IC50 [6, 8]: 2.17e-06 M

COc1cc(O)ccc1C(=O)/C=C/c1ccc(O)cc1 [Compound 5, 3-deoxysappanchalcone]
CC50 at 3 days [1]: > 30.2 µM
s.i (selectivity index) HEK239T [2]: >2.91
CC50 at 3 days [3]: > 37.1 µM
s.i (selectivity index) HepG2 [4]: >3.58
IC50 [6, 9]: 1.04e-05 ± 3.36e-06 M
IC50 [6, 7]: > 1e-05 M
IC50 [6, 8]: 1.04e-05 M

CC(C)=CCC/C(C)=C/Cc1c(O)ccc(C(=O)/C=C/c2ccc(O)cc2)c1O [Compound 6, xanthoangelol]
CC50 at 3 days [1]: > 25.4 µM
s.i (selectivity index) HEK239T [2]: >3.43
CC50 at 3 days [3]: > 25.4 µM
s.i (selectivity index) HepG2 [4]: >3.43
IC50 [6, 7]: 7.42e-06 ± 1.12e-06 M
IC50 [6, 8]: 7.41e-06 M

COc1cc(CC/C=C/C(=O)CCc2ccccc2)ccc1O [Compound 7, 7-(4″-hydroxy-3″-methoxyphenyl)-1-phenylhept-4-en-3-one]
CC50 at 3 days [1]: > 32.4 µM
s.i (selectivity index) HEK239T [2]: >13.05
CC50 at 3 days [3]: > 32.4 µM
s.i (selectivity index) HepG2 [4]: >13.05
IC50 [6, 8]: 2.48e-06 M

COc1cc(C=CC=O)ccc1O [Compound 8, 4-hydroxy-3-methoxycinnamaldehyde]
CC50 at 3 days [1]: > 48.1 µM
s.i (selectivity index) HEK239T [2]: >2.93
CC50 at 3 days [3]: > 57 µM
s.i (selectivity index) HepG2 [4]: >3.47
IC50 [6, 9]: 1.64e-05 ± 2.78e-06 M
IC50 [6, 7]: > 1e-05 M
IC50 [6, 8]: 1.64e-05 M

C=CCc1ccc(Oc2cc(/C=C/C=O)cc(O)c2O)cc1 [Compound 9, obovatal]
CC50 at 3 days [1]: > 33.8 µM
s.i (selectivity index) HEK239T [2]: >3.42
CC50 at 3 days [3]: > 33.8 µM
s.i (selectivity index) HepG2 [4]: >3.42
IC50 [6, 7]: 9.89e-06 ± 5.1e-07 M
IC50 [6, 8]: 9.89e-06 M

C=CCc1ccc(O)c(-c2ccc(O)c(CC=C)c2)c1 [Compound 10, honokiol]
CC50 at 3 days [1]: > 37.6 µM
s.i (selectivity index) HEK239T [2]: >4.29
CC50 at 3 days [3]: > 37.6 µM
s.i (selectivity index) HepG2 [4]: >4.29
IC50 [6, 7]: 8.76e-06 ± 3.8e-07 M
IC50 [6, 8]: 8.77e-06 M

C=C[C@H](OC(C)=O)c1ccc(OC(C)=O)cc1 [Compound 11, 1′S-1′-acetoxychavicol acetate]
CC50 at 3 days [1]: > 23.2 µM
s.i (selectivity index) HEK239T [2]: >4.94
CC50 at 3 days [3]: > 30 µM
s.i (selectivity index) HepG2 [4]: >6.38
IC50 [6, 9]: 4.7e-06 ± 1.53e-06 M
IC50 [6, 7]: < 5e-06 M
IC50 [6, 8]: 4.7e-06 M

COc1ccc([C@H](O)[C@@H](C)Oc2ccc([C@H]3O[C@H](c4ccc5c(c4)OCO5)[C@H](C)[C@H]3C)cc2OC)cc1OC [Compound 12, saucerneol D]
CC50 at 3 days [1]: > 16.2 µM
s.i (selectivity index) HEK239T [2]: >2.89
CC50 at 3 days [3]: > 18.6 µM
s.i (selectivity index) HepG2 [4]: >3.32
IC50 [6, 7]: 5.61e-06 ± 9e-08 M
IC50 [6, 8]: 5.61e-06 M

COc1ccc([C@@H](O)[C@@H](C)Oc2ccc([C@H]3O[C@H](c4ccc(O[C@H](C)[C@H](O)c5ccc(OC)c(OC)c5)c(OC)c4)[C@H](C)[C@H]3C)cc2OC)cc1OC [Compound 13, manassantin A]
CC50 at 3 days [1, 10]: > 11.8 µM
CC50 at 3 days ([3]; HepG2 cells, 3 days, > = highest concentration tested (5 ppm), read-out: Cytotoxicity CC50 Values HepG2): > 13.7 µM
IC50 ([6]; Trypanosoma brucei, 72 h, read-out: T. brucei IC50): 5.43e-06 ± 2.6e-07 M
IC50 ([6]; Trypanosoma brucei, read-out: pIC50 Tbr(exp) (converted)): 5.43e-06 M

COc1ccc([C@@H](O)[C@@H](C)Oc2ccc([C@H]3O[C@H](c4ccc(O[C@H](C)[C@H](O)c5ccc6c(c5)OCO6)c(OC)c4)[C@H](C)[C@H]3C)cc2OC)cc1OC [Compound 14, manassantin B]
CC50 at 3 days [1]: > 11 µM
s.i (selectivity index) HEK239T [2]: >3.12
CC50 at 3 days [3]: > 13.9 µM
s.i (selectivity index) HepG2 [4]: >3.93
IC50 [6, 9]: 3.54e-06 ± 4.9e-07 M
IC50 [6, 7]: < 5e-06 M
IC50 [6, 8]: 3.54e-06 M

C=C(C)[C@H](CC=C(C)C)Cc1c(O)cc(O)c2c1O[C@H](c1ccc(O)cc1O)CC2=O [Compound 15, kushenol F]
CC50 at 3 days [1]: > 23.8 µM
s.i (selectivity index) HEK239T [2]: >17.34
CC50 at 3 days [3]: > 23.8 µM
s.i (selectivity index) HepG2 [4]: >17.34
IC50 [6, 8]: 1.37e-06 M

O=c1cc(-c2ccc(O)cc2)oc2cc(O)cc(O)c12 [Compound 16, apigenin]
CC50 at 3 days [1]: > 37 µM
s.i (selectivity index) HEK239T [2]: >3.38
CC50 at 3 days [3]: > 37 µM
s.i (selectivity index) HepG2 [4]: >3.38
anti-trypanosomal activity previously reported [5]: anti-trypanosomal activity
IC50 [6, 9]: 1.1e-05 ± 2.64e-06 M
IC50 [6, 7]: > 1e-05 M
IC50 [6, 8]: 1.1e-05 M

COc1ccc(-c2cc(=O)c3c(O)c(OC)c(O)cc3o2)cc1OC [Compound 17, eupatilin]
CC50 at 3 days [1]: > 29.1 µM
s.i (selectivity index) HEK239T [2]: >3.58
CC50 at 3 days [3]: > 29.1 µM
s.i (selectivity index) HepG2 [4]: >3.58
IC50 [6, 7]: 8.14e-06 ± 1.37e-06 M
IC50 [6, 8]: 8.15e-06 M

CC(C)=CCc1c(-c2ccc(O)cc2O)oc2c3c(cc(O)c2c1=O)OC(C)(C)C=C3 [Compound 18, morusin]
CC50 at 3 days [1]: > 23.7 µM
s.i (selectivity index) HEK239T [2]: >6.98
CC50 at 3 days [3]: > 23.7 µM
s.i (selectivity index) HepG2 [4]: >6.98
IC50 [6, 9]: 3.4e-06 ± 1.5e-07 M
IC50 [6, 7]: < 5e-06 M
IC50 [6, 8]: 3.4e-06 M

O=C1c2ccc(O)cc2OC[C@H]1Cc1ccc(O)c(O)c1 [Compound 19, 3-deoxysappanone B]
CC50 at 3 days [1]: > 35 µM
s.i (selectivity index) HEK239T [2]: >6.04
CC50 at 3 days [3]: > 35 µM
s.i (selectivity index) HepG2 [4]: >6.04
IC50 [6, 7]: 5.8e-06 ± 7e-08 M
IC50 [6, 8]: 5.79e-06 M

CC(C)=CCc1c(O)c(CC=C(C)C)c2occ(-c3ccc(O)c(O)c3)c(=O)c2c1O [Compound 20, 6,8-diprenylorobol]
CC50 at 3 days [1]: > 24.1 µM
s.i (selectivity index) HEK239T [2]: >46.34
CC50 at 3 days [3]: > 24.1 µM
s.i (selectivity index) HepG2 [4]: >46.34
IC50 [6, 8]: 5.2e-07 M

O=c1c(-c2ccc(O)cc2)coc2cc(O[C@@H]3O[C@H](CO)[C@@H](O)[C@H](O)[C@H]3O)cc(O)c12 [Compound 21, genistin]
CC50 at 3 days [1]: > 23.1 µM
s.i (selectivity index) HEK239T [2]: >6.99
CC50 at 3 days [3]: > 23.1 µM
s.i (selectivity index) HepG2 [4]: >6.99
IC50 [6, 9]: 3.31e-06 ± 7.5e-07 M
IC50 [6, 7]: < 5e-06 M
IC50 [6, 8]: 3.31e-06 M

O=c1c(-c2ccc(O[C@@H]3O[C@H](CO)[C@@H](O)[C@H](O)[C@H]3O)cc2)coc2cc(O)cc(O)c12 [Compound 22, sophoricoside]
CC50 at 3 days [1]: > 23.1 µM
s.i (selectivity index) HEK239T [2]: >3.56
CC50 at 3 days [3]: > 23.1 µM
s.i (selectivity index) HepG2 [4]: >3.56
IC50 [6, 7]: 6.5e-06 ± 5.2e-07 M
IC50 [6, 8]: 6.5e-06 M

N=C(N)c1ccc(OCCCCCOc2ccc(C(=N)N)cc2)cc1 [Pentamidine, reference compound]
s.i (selectivity index) HEK239T [2]: <26.7
IC50 [6, 7]: 4e-09 ± 3e-09 M

demethoxycurcumin [Compound 2]
CC50 [2, 10]: > 21.4 µM
CC50 ([4]; HepG2 cells, 3 days, > = highest concentration tested (5 ppm)): > 29.6 µM
anti-trypanosomal activity previously reported [5]: anti-trypanosomal activity
pIC50 Tbr(exp) ([6]; -log IC50 [M], experimental): 5.143
IC50 [6, 9]: 7.19e-06 ± 1.02e-06 M
